{"source": "patent US8080235B2", "about": "“Protein kinase A reporters useful in high throughput assays” (The Johns Hopkins University, priority 2005, dated 2011)", "assay_type_in_all_cases": "cell-based", "key": {"[1]": {"test_system": "PKA activity", "test": "AKAR3 live cell 96-well plate reader assay (yellow/cyan emission ratio)", "protocol": "(§1) Live Cell Plate Reading. HEK-293 cells were transfected with AKAR3 or ICUE3 using calcium phosphate at 40% confluency and grown for 40 hours. Cells were then trypsinized and plated in a Costar 3603 96-well plate (Corning) at a density of 150,000 cells per well. After incubation for another 24 hours, cells were washed once with HBSS and left in 150 μl of HBSS at 20-25° C. Fluorescence reading was taken on a FLUOstar OPTIMA fluorescence microplate reader (BMG Labtechnologies Inc.) using a 420DF20 excitation filter and two emission filters (470DF40 for cyan and 535DF25 for yellow). A baseline was established in three cycles, each consisting of a full plate reading of yellow intensity, followed by a reading of cyan intensity.\n(§2) Each cycle lasted between 64 and 92 seconds. Cells were then treated with ISO, Fsk, H89, Propranolol (Pro; Sigma), or 3-isobutyl-1-methylxanthine (IBMX; Sigma) as indicated. Readings were taken in additional cycles. FRET change was calculated as the percent increase of emission ratios (yellow-to-cyan for AKAR and cyan-to-yellow for ICUE) over baseline for each well during a given cycle. Several parameters were calculated to assess the efficiency of the assay, including Z′ factor, coefficient of variation, and signal to noise (S/N) ratio (22).\nAKAR2 (FIG. 4). This reporter, AKAR3 (FIG. 1b), was tested in a 96-well plate format. […] As negative controls, addition of buffer of 2% DMSO generated minimal changes in emission ratios. This 96-well plate assay was sensitive and reproducible, with a signal to noise ratio of 30.3, a Z′ factor of 0.84, and a coefficient of variation (CV) of 1.8% for the Fsk-stimulated response.\nTo provide specific readout of compartmentalized PKA activities, we introduced a C-terminal nuclear export signal (NES) to AKAR3 . In the plate reader assay using AKAR3 -NES (FIG. 1d), cytosolic PKA activity was recorded without contamination of nuclear activity, which has slower kinetics due to diffusional translocation of the catalytic subunit from cytosol to nucleus. […] Thus, sensor targeting provides increased temporal and spatial resolution and can be used to reveal how individual signaling microdomains, such as kinase-containing signaling complexes, are affected by drugs or other perturbations, adding another level of capacity to the non-image-based high-throughput assays of the invention."}, "[2]": {"test_system": "cAMP", "test": "ICUE3 live cell high-throughput cAMP plate reader assay (cyan/yellow emission ratio)", "protocol": "as §1, §2\nTo follow the activity of the signaling pathway and to assay related drug targets in parallel, we developed a live cell-based high-throughput assay for cAMP, a second messenger that is generated via activation of Gs-coupled GPCRs and exerts its effects by activating PKA and other effectors. Similar improvement approaches were first applied to create a reporter that more than doubled the response of previous “Indicator for cAMP Using Epac” (ICUE), which generates a decrease in FRET upon binding of cAMP (FIG. 5). […] Possible sources of the variation and reduced signal are transfection efficiency and expression variability."}, "[3]": {"test_system": "PKA activity", "test": "AKAR3 high-throughput screening of Johns Hopkins Clinical Compound Library", "settings": "10 μM compound about 15 min, then 0.25 μM ISO", "protocol": "Live Cell High-Throughput Screening. […] After incubation for 24 hours, cells were washed once with HBSS and left in 190 μl of HBSS at 20-25° C. Fluorescence readings were taken as described above, with each cycle lasting 90 seconds. Following baseline acquisition, cells in each experimental well were treated with a compound from the Johns Hopkins Clinical Compound Library to a final concentration of 10 μM. Control cells were treated with 10 μL of 10% fetal bovine serum (FBS) in a solution of phosphate buffered saline (PBS) at pH 7.4, which is the solution used to dissolve library compounds.\nTen final cycles were then performed.\nFRET responses were calculated as described above. […] Agonist hits were defined as compounds eliciting responses larger than six times the standard deviation above the baseline. Antagonist hits were defined as compounds which decreased the ISO stimulated response by 50% or by six times the standard deviation.\nIn a primary screening, 160 compounds from the Johns Hopkins Clinical Compound Library were added to AKAR3-expressing HEK-293 cells in individual wells of 96-well plates to a final concentration of 10 μM after a base line reading. Time courses were recorded to monitor any fluorescence changes upon drug addition and to identify hits which activate PKA as potential agonists.\nPotential agonists were identified by selecting compounds which stimulated emission ratio changes larger than 6 times the standard deviation above the negative control (FIG. 3a )."}, "[4]": {"test_system": "cAMP", "test": "ICUE high-throughput screening of Johns Hopkins Clinical Compound Library (stable cells)", "settings": "10 μM compound, then 0.25 μM Iso plus 100 μM IBMX", "protocol": "Live Cell High-Throughput Screening. HEK-293 cells transiently expressing AKAR or stably expressing ICUE were trypsinized and plated in a Costar 3606 96-well plate (Corning) at a density of 150,000 cells per well. After incubation for 24 hours, cells were washed once with HBSS and left in 190 μl of HBSS at 20-25° C. Fluorescence readings were taken as described above, with each cycle lasting 90 seconds. Following baseline acquisition, cells in each experimental well were treated with a compound from the Johns Hopkins Clinical Compound Library to a final concentration of 10 μM. Control cells were treated with 10 μL of 10% fetal bovine serum (FBS) in a solution of phosphate buffered saline (PBS) at pH 7.4, which is the solution used to dissolve library compounds.\nReadings were taken for 10 cycles spanning a time of approximately 15 minutes, after which cells in experimental wells and positive controls were treated with 0.25 μM ISO (AKAR) or 0.25 μM Iso plus 100 μM IBMX (ICUE), while negative controls received 0.5% DMSO in HBSS. Ten final cycles were then performed.\nFRET responses were calculated as described above. Negative control (10% FBS, 0.5% DMSO) and positive control (10% FBS, 0.25 μM ISO) curves were generated. Agonist hits were defined as compounds eliciting responses larger than six times the standard deviation above the baseline. […]"}}, "data": [{"smiles": "CC(C)NCC(O)COc1cccc2ccccc12", "note": "(stereo not drawn) [Pro, propranolol]", "values": [{"measurement": "effect on ISO-induced AKAR3 response", "setting": "[1]; 10 μM Pro, FIG. 2", "result": "inhibited"}, {"measurement": "effect on Fsk-stimulated AKAR3 response", "setting": "[1]; FIG. 2d", "result": "no effect"}, {"measurement": "effect on Fsk-stimulated ICUE3 response", "setting": "[2]; FIG. 2c", "result": "no effect"}, {"measurement": "effect on ISO-induced ICUE3 response", "setting": "[2]; co-treatment, 10 μM Pro, FIG. 2a", "result": "inhibited"}, {"measurement": "antagonist screen: effect on ISO-stimulated AKAR response", "setting": "[3]", "result": "potently inhibited"}, {"measurement": "antagonist screen: effect on ISO-stimulated ICUE response", "setting": "[4]", "result": "potently inhibited"}]}]}
